What all share (assay): DTP human tumour cell line panel, 48 h
The subject of assay [1] is MDA-MB-435.
Assay [2] has as its system LOX IMVI melanoma.
For assay [3], the system named is A549 NSCLC.
Assay [4] deals with SF-539 CNS.
In assay [5] the test system is HCC-2998 colon.
Assay [6] concerns UO-31 renal.
Assay [7] concerns HOP-18 NSCLC.
For assay [8], the system named is HCT-15 colon.
Assay [9] deals with DU-145 prostate.
The subject of assay [10] is DLD-1 colon.

For orientation: GI50 means the concentration at which growth is held to half of that of the control. A word on the TGI: it is the concentration giving total growth inhibition. Higher therefore signals less potent growth arrest.

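Five concentrations, 48 hours, 96-well plates. Abbreviation: GI50, concentration required for 50% inhibition of growth. TGI: concentration producing complete growth inhibition.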

Take `CC[CH2][Sn]([CH2]CC)([O]C(=O)Cc1ccc(F)cc1)[O][Sn]([CH2]CC)([CH2]CC)[O]C(=O)Cc1ccc(F)cc1`: the GI50 in assay [1] was 393 nM; in assay [2], 85.1 nM; in assay [3], 1880 nM; in assay [4] it was 274 nM; in [5] it was 439 nM; in assay [6], 482 nM. For the same compound, the GI50 in [7] is 250 nM; in assay [8], 218 nM; in assay [9] it was 537 nM; in assay [10] it was 122 nM. Further, the TGI was found to be 1.61 µM in [1]; 0.232 µM in assay [2]; 4.71 µM in assay [3]; 0.769 µM in [4]; 1.7 µM in assay [5]; 1.65 µM in [6]. Further, the TGI worked out at 0.828 µM in [7], 0.658 µM in [8], 1.8 µM in [9] and 0.432 µM in assay [10].
With `C=C(CN(C)C)C(=O)c1ccc(Oc2ccccc2)cc1`, the TGI is 10.3 µM in assay [1]; 28.5 µM in assay [2]; 42.6 µM in assay [3]; 12.2 µM in assay [4]; 32.3 µM in assay [5]; 8.72 µM in [6]. The TGI in [7] came to 13.3 µM; in assay [8], 11 µM; in [9], 27.6 µM; in [10], 6.96 µM.
Regarding `CCCCCC/C=C1\CCC(CN(C)C)C1=O` (stereo not given), the TGI worked out at 21.6 µM in [1]; 3.79 µM in assay [2]; 36.9 µM in assay [3]; 28.1 µM in assay [4]; 18.3 µM in assay [5]; 28.9 µM in assay [6]. In addition, the TGI came to 28.8 µM in [7], 6.61 µM in [8], 41.3 µM in assay [9] and 6.18 µM in [10].

(Values after PubChem BioAssay (NCI).)
